IC50 and EC50 data for 19 molecules are collected here from patent publication US10961234B2, “Oxazole derivatives for use in the treatment of cancer” (LIFEARC, priority 2016, dated 2021).

In one assay the target is T1, WT full length PAICS (Homo sapiens, UniProt P22234).
T1 construct: 5 μl WT full length PAICS (final assay concentration, fac, 2.5 nM) in basic buffer
T1 sequence (P22234 1-425): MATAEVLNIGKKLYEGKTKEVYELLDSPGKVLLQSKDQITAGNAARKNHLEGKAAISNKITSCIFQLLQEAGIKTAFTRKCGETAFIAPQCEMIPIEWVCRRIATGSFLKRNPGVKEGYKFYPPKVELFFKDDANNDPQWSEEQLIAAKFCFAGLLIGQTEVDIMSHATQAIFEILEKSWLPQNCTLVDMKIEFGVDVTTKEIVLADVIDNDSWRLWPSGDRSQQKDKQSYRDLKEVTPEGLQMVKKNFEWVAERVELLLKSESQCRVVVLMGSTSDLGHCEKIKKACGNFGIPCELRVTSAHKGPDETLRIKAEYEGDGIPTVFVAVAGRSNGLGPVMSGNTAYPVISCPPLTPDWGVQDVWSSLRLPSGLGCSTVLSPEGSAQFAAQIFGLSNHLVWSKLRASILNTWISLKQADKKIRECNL
The assay is described as follows: Biochemical assay to measure PAICS activity (Transcreener ADP2 FI, SAICAR synthetase reaction). The note with it: PAICS 2.5 nM, 30 mins pre-incubation, ADP detection by fluorescence intensity. The text has this:
The biochemical assay was used to measure PAICS SAICAR synthetase-mediated conversion of CAIR, aspartic acid and ATP to SAICAR, ADP and inorganic phosphate (PI), post-AIR/CAIR equilibration (see FIG. 3). This was achieved by detecting the ADP generated during the reaction, using Bellbrook Lab's Transcreener ADP^2 FI assay. An increase in the fluorescence intensity is directly proportional to the amount of PAICS activity.
The Transcreener ADP^2 FI assay is a homogeneous competitive displacement fluorescence intensity assay which uses direct immunodetection of ADP. Displacement of the tracer by ADP causes an increase in the fluorescence at excitation 590 nm and emission 617 nm (FIG. 3).
5 μl WT full length PAICS (final assay concentration, fac, 2.5 nM) in basic buffer, added to black, non-binding, 384-well plates (Corning #3575), columns 1 to 22.5 μl basic buffer was added to columns 23+24 (negative control). PAICS stock at 31.9 μM from the PI's lab (Steve Firestine). Basic buffer contained 50 mM Tris-HCl pH8 and 0.5 mM EDTA, fac.
1 μl compound in 100% DMSO added per well, or 1 μl 100% DMSO to positive controls (columns 1+2) and negative controls (columns 23+24). Final assay top concentration of compound either 1 mM or 30 μM, serially diluted with half-log dilutions across the plate in duplicate (one 10-point concentration response curve across wells 3 to 12, another across 13 to 22). Compounds pre-incubated with PAICS enzyme for 30 mins at RT.
2 μl CAIR added (fac 10 μM) in basic buffer plus 25 mM MgCl2 and 50 mM KHCO3 fac to all wells. CAIR stock 50 mM from Steve Firestine's lab. 1 hr RT incubation for AIR-CAIR equilibration. NB: ˜50% CAIR is decarboxylated during equilibration therefore 5 μM remains for the synthetase reaction.
2 μl ATP/aspartic acid added (fac 30 μM/180 μM) in reaction buffer to all wells. 30 mins RT incubation for appropriate level of ATP turnover. Reaction buffer contained basic buffer plus 10 mM DTT, 0.01% BSA and 0.01% Brij 35, fac.
10 μl ADP detection reagent added to all wells (as per instructions, Transcreener ADP^2 FI kit, BellBrook Labs #3013-10K). Incubation for 1 h at RT to allow antibody equilibration. Fluorescence intensity determined using a Tecan Safire2 (excitation at 590 nm, emission at 617 nm).

The test system of assay [1] is LM2 and MDA-MB-231 breast cancer cell lines. The assay is described as follows: PAICS 2D cell proliferation assay. The class given is cell-based. The note with it: Homo sapiens; 72 hours incubation; cell line (LM2 or MDA-MB-231) not given. As to the method: Frozen cryovial stocks of LM2 and MDA-MB-231 breast cancer cell lines were thawed and cultured in 4.5 g/L glucose DMEM (31966-047, Invitrogen) supplemented with 10% Fetal Bovine Serum (10500-064, Invitrogen) until confluent in a T175 flask. Cells were incubated at 37° C. with 5% CO2 in a humidified incubator.
Cells were collected from T175 flasks by washing with PBS (10010-056, Invitrogen) and dissociated using Accutase (A6964, Sigma Aldrich). This was followed by centrifuging (1200 rpm, 5 min) and resuspending the cells in 10 ml of media containing 1% penicillin/streptomycin (15140-122, Invitrogen). Cells were counted by trypan blue exclusion method using an automated cell counter (Cellometer) and diluted to a concentration of 40,000/ml. 1000 cells were then seeded into 384-well white-walled plates (Corning, 3707) in a volume of 25 μl. Plates were incubated overnight at 37° C. with 5% CO2.
After 24 hours, PAICS compounds were added onto the assay plates using an HP D300 Digital Dispenser (Hewlett Packard). 10 mM stocks were used and dispensed as a 10 point concentration response curve (CRC) ½ log dilution series with a final top concentration of 100 μM. Controls were added onto each plate: positive controls included Staurosporine CRC (100 μM stock dispensed as a 10 point CRC ½ log dilution series with a final top concentration of 1 μM) and PAICS compound MRT00211919 (10 mM stock dispensed as a 10 point CRC ½ log dilution series with a final top concentration of 100 μM); a high control of Staurosporine (0.1 μM (LM2), 0.316 μM (MDA-MB-231) FAC) and a low control of media containing 1% DMSO. A final concentration of 1% DMSO was then added across the plates for normalisation. Following compound addition, assay plates were incubated for 72 hours at 37° C. with 5% CO2.
After 72 h incubation, dead and viable cells were measured in each assay plate. Cytotoxicity was assessed through fluorescent DNA staining using the CellTox™ Green Cytotoxicity Assay kit (G8743, Promega) following the manufacturer's multiplexing protocol. Impaired cell membrane integrity results in the access of dye to stain DNA allowing quantification of dead cells. Cell viability was determined following ATP quantification using the CellTiter-Glo® Luminescent Cell Viability Assay kit (G7572, Promega) following the manufacturer's protocol. ATP released from lysed cells allowed for the generation of a signal proportional to the number of cells present in the well. All endpoint reads were performed using the PheraSTAR Plus (BMG Labtech). Data is expressed as % viable cells and % dead cells against controls (mean±SEM of duplicate curves).

Each structure is given as a SMILES string.

One may read the IC50 as the midpoint of a concentration-inhibition curve. Read a high IC50 as a need for much substance. Usually EC50 stands for the concentration at which the effect is half-maximal. Lower therefore signals an effect from little substance. For the molecule `CNC1CCC(n2cc(-c3ccc(Cl)c(NC(=O)c4coc(N)n4)c3)cn2)CC1` (mixture of isomers) [Example 80, 2-Amino-N-(2-chloro-5-{1-[4-(methylamino)cyclohexyl]-1H-pyrazol-4-yl}phenyl)-1,3-oxazole-4-carboxamide], the IC50 on WT full length PAICS was less than 10 nM. Further, the EC50 in assay [1] was less than 100 nM.

`Nc1nc(C(=O)Nc2cc(-c3ccc(CN4CCNCC4)cc3)ccc2Cl)co1` [Example 38, 2-Amino-N-[4-chloro-4′-(piperazin-1-ylmethyl)biphenyl-3-yl]-1,3-oxazole-4-carboxamide] gave an IC50 at WT full length PAICS of 10 to 25 nM. In assay [1], the EC50 fell in the range of 250 to 500 nM.

`Nc1nc(C(=O)Nc2cc(-c3ccc(N4CCNCC4)cc3)ccc2Cl)co1` [Example 39, 2-Amino-N-[4-chloro-4′-(piperazin-1-yl)biphenyl-3-yl]-1,3-oxazole-4-carboxamide]: at WT full length PAICS, the IC50 was greater than 100 nM. In assay [1], this molecule returned an EC50 of 250 to 500 nM.

In the case of `Nc1nc(C(=O)Nc2cc(-c3cnn(C4CCNCC4)c3)ccc2Cl)co1` [Example 40], on WT full length PAICS, the IC50 lay within 25 to 100 nM. The molecule also had an EC50 in assay [1] of 250 to 500 nM.

For the molecule `Nc1nc(C(=O)Nc2cc(-c3cnn(C4CCNC4)c3)ccc2Cl)co1` (stereo not shown) [Example 41, 2-Amino-N-{2-chloro-5-[1-(pyrrolidin-3-yl)-1H-pyrazol-4-yl]phenyl}-1,3-oxazole-4-carboxamide], the IC50 at WT full length PAICS fell in the range of 25 to 100 nM. For the same molecule, the EC50 in assay [1] is 100 to 250 nM.

In the case of `Nc1nc(C(=O)Nc2cc(-c3cnn(C4CCCNC4)c3)ccc2Cl)co1` (stereo not shown) [Example 42, 2-Amino-N-{2-chloro-5-[1-(piperidin-3-yl)-1H-pyrazol-4-yl]phenyl}-1,3-oxazole-4-carboxamide], the IC50 against WT full length PAICS is greater than 100 nM. Further, the EC50 in assay [1] was 100 to 250 nM.

`CN(C)CCCn1cc(-c2ccc(Cl)c(NC(=O)c3coc(N)n3)c2)cn1` [Example 43, 2-Amino-N-(2-chloro-5-{1-[3-(dimethylamino)propyl]-1H-pyrazol-4-yl}phenyl)-1,3-oxazole-4-carboxamide] showed an IC50 at WT full length PAICS of 25 to 100 nM. Besides, the EC50 in assay [1] was in the range of 100 to 250 nM.

As for `CN1CCC(n2cc(-c3ccc(Cl)c(NC(=O)c4coc(N)n4)c3)cn2)CC1` [Example 44, 2-Amino-N-{2-chloro-5-[1-(1-methylpiperidin-4-yl)-1H-pyrazol-4-yl]phenyl}-1,3-oxazole-4-carboxamide], the IC50 on WT full length PAICS is greater than 100 nM. The same molecule showed an EC50 in assay [1] of 100 to 250 nM.

`CN1CC(n2cc(-c3ccc(Cl)c(NC(=O)c4coc(N)n4)c3)cn2)C1` [Example 45, 2-Amino-N-{2-chloro-5-[1-(1-methylazetidin-3-yl)-1H-pyrazol-4-yl]phenyl}-1,3-oxazole-4-carboxamide] registered an IC50 on WT full length PAICS greater than 100 nM. This molecule also had an EC50 in assay [1] of 100 to 250 nM.

Take `Nc1nc(C(=O)Nc2cc(-c3cnn(CCCNC4CC4)c3)ccc2Cl)co1` [Example 48, 2-Amino-N-(2-chloro-5-(1-(3-(cyclopropylamino)propyl)-1H-pyrazol-4-yl)phenyl)oxazole-4-carboxamide]: the IC50 against WT full length PAICS was in the range of 10 to 25 nM. Moreover, in assay [1], the EC50 is 100 to 250 nM.

With `CNCCCn1cc(-c2ccc(Cl)c(NC(=O)c3coc(N)n3)c2)cn1` [Example 49, 2-Amino-N-(2-chloro-5-(1-(3-(methylamino)propyl)-1H-pyrazol-4-yl)phenyl)oxazole-4-carboxamide], the IC50 on WT full length PAICS is less than 10 nM. This molecule also displayed an EC50 in assay [1] of less than 100 nM.

Molecule `CNCCn1cc(-c2ccc(Cl)c(NC(=O)c3coc(N)n3)c2)cn1` [Example 50, 2-Amino-N-(2-chloro-5-(1-(2-(methylamino)ethyl)-1H-pyrazol-4-yl)phenyl)oxazole-4-carboxamide] had an IC50 against WT full length PAICS of 10 to 25 nM. The molecule further gave an EC50 in assay [1] of 100 to 250 nM.

In assay [1], `CN(C)CCCc1ncc(-c2ccc(Cl)c(NC(=O)c3coc(N)n3)c2)s1` [Example 85, 2-Amino-N-(2-chloro-5-{2-[3-(dimethylamino)propyl]-1,3-thiazol-5-yl}phenyl)-1,3-oxazole-4-carboxamide] came in with an EC50 of less than 100 nM.

The molecule `CNC1CCCN(Cc2csc(-c3ccc(Cl)c(NC(=O)c4coc(N)n4)c3)n2)C1` (stereo not shown) [Example 96, 2-Amino-N-[2-chloro-5-(4-{[3-(methylamino)piperidin-1-yl]methyl}-1,3-thiazol-2-yl)phenyl]-1,3-oxazole-4-carboxamide] came in with an EC50 in assay [1] of less than 100 nM.

`CN(C)C1CCN(Cc2csc(-c3ccc(Cl)c(NC(=O)c4coc(N)n4)c3)n2)CC1` [Example 97, 2-Amino-N-[2-chloro-5-(4-{[4-(dimethylamino)piperidin-1-yl]methyl}-1,3-thiazol-2-yl)phenyl]-1,3-oxazole-4-carboxamide]: the EC50 in assay [1] fell in the range of 100 to 250 nM.

The molecule `CCN(CC)CCCOc1ncc(-c2ccc(Cl)c(NC(=O)c3coc(N)n3)c2)s1` [Example 98, 2-Amino-N-(2-chloro-5-{2-[3-(diethylamino)propoxy]-1,3-thiazol-5-yl}phenyl)-1,3-oxazole-4-carboxamide] displayed an EC50 in assay [1] of less than 100 nM.

Regarding `CSc1ccc(-c2cnc(OCCCN(C)C)s2)cc1NC(=O)c1coc(N)n1` [Example 99, 2-Amino-N-[5-{2-[3-(dimethylamino)propoxy]-1,3-thiazol-5-yl}-2-(methylsulfanyl)phenyl]-1,3-oxazole-4-carboxamide], the EC50 in assay [1] was 100 to 250 nM.

For `CSc1ccc(-c2nc(CN3CCNCC3)cs2)cc1NC(=O)c1coc(N)n1` [Example 100, 2-Amino-N-{2-(methylsulfanyl)-5-[4-(piperazin-1-ylmethyl)-1,3-thiazol-2-yl]phenyl}-1,3-oxazole-4-carboxamide], the EC50 in assay [1] was less than 100 nM.

Take `CN1CCN(c2ncc(-c3ccc(Cl)c(NC(=O)c4coc(N)n4)c3)s2)CC1` [Example 101, 2-Amino-N-{2-chloro-5-[2-(4-methylpiperazin-1-yl)-1,3-thiazol-5-yl]phenyl}-1,3-oxazole-4-carboxamide]: in assay [1], the EC50 is 100 to 250 nM.
